According to patent publication US12171779B2, “Regulated drug delivery via controlled degradable chondroitin sulfate particles” (UNIVERSITY OF SOUTH FLORIDA, priority 2021, dated 2024):

What was measured:
[1] = Total phenolic content by Folin-Ciocalteau (FC) method; conditions: 1000 μg/mL concentration
Description: Total phenolic content of the particles was evaluated by Folin-Ciocalteau (FC) method. Briefly, 0.1 mL of 1 mg/mL microgel suspensions were reacted with 1.25 mL of 0.2 N solution of FC phenol reagent for 4 min. Next, 1 mL of 0.7 M sodium bicarbonate solution was added to this mixture and kept in the dark for 2 hours. Then, the total phenol content of the microgels was measured by using a UV/Vis spectrophotometer (T80+PG Instrument) at 760 nm. The antioxidant activity of the microgels was expressed as μg/mL gallic acid equivalent. The analysis was repeated three times, and the values are reported as the average values with standard deviations.

[2] = cited from earlier work

O=C(/C=C/c1ccc(O)c(O)c1)O[C@H](Cc1ccc(O)c(O)c1)C(=O)O [RA, Rosmarinic acid]
Total phenol content (TPC), gallic acid equivalent [1]: 556±35 μg/mL gallic acid equivalent
IC50 (50% inhibition of DPPH radical) [2]: 1.3 ± 0.1 µg/mL
